Tests used:
[1] = tested on: BAF3 EGFR L858R-T790M PURO POOL; experiment: Cell proliferation (MTT), BAF3 EGFR L858R-T790M; format: cell-based; details: Ba/F3 EGFR
How it was run: (§1)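 In this screen, MTT reduction reported on proliferation of BaF3 cells dependent on mutated EGFR and of matched BaF3 cells expressing wildtype receptor.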

[2] = target: human EGFR (native sequence) (Homo sapiens, UniProt P00533); experiment: Kinase inhibition, human EGFR (native sequence); format: biochemical; details: 10 μM ATP; 10 pt curves, 3 μM top concentration (singlicates)
How it was run: (§2)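 Singlicate 10 pt curves; top conc. 3 μM; ATP 10 μM.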

[3] = target: BAF3 EGFR DEL T790M PURO POOL (Homo sapiens, UniProt P00533, DEL746-750/T790M, cells depend on it); experiment: Cell proliferation (MTT), BAF3 EGFR DEL T790M; format: cell-based
How it was run: as §1

[4] = target: EGFR bearing the L858R mution (Homo sapiens, UniProt P00533, L858R); experiment: Kinase inhibition, EGFR L858R; format: biochemical; details: 10 μM ATP; 10 pt curves, 3 μM top concentration (singlicates)
How it was run: as §2

BAF3 PARENTAL = experiment: Cell proliferation (MTT), BAF3 parental; format: cell-based; details: Mus musculus
Protocol: We also assessed the antiproliferative activity of compounds of Formula (I) against BaF3 cells expressing the target EGFR mutations or control (i.e., cell lines expressing wildtype EGFR). Assays were conducted using MTT.

[5] = target: EGFR bearing the L858R/T790M double mutation (Homo sapiens, UniProt P00533, L858R/T790M); experiment: Kinase inhibition, EGFR L858R/T790M; format: biochemical; details: 10 μM ATP; 10 pt curves, 3 μM top concentration (singlicates)
How it was run: as §2

Sequence of human EGFR (native sequence) (P00533 25-1210): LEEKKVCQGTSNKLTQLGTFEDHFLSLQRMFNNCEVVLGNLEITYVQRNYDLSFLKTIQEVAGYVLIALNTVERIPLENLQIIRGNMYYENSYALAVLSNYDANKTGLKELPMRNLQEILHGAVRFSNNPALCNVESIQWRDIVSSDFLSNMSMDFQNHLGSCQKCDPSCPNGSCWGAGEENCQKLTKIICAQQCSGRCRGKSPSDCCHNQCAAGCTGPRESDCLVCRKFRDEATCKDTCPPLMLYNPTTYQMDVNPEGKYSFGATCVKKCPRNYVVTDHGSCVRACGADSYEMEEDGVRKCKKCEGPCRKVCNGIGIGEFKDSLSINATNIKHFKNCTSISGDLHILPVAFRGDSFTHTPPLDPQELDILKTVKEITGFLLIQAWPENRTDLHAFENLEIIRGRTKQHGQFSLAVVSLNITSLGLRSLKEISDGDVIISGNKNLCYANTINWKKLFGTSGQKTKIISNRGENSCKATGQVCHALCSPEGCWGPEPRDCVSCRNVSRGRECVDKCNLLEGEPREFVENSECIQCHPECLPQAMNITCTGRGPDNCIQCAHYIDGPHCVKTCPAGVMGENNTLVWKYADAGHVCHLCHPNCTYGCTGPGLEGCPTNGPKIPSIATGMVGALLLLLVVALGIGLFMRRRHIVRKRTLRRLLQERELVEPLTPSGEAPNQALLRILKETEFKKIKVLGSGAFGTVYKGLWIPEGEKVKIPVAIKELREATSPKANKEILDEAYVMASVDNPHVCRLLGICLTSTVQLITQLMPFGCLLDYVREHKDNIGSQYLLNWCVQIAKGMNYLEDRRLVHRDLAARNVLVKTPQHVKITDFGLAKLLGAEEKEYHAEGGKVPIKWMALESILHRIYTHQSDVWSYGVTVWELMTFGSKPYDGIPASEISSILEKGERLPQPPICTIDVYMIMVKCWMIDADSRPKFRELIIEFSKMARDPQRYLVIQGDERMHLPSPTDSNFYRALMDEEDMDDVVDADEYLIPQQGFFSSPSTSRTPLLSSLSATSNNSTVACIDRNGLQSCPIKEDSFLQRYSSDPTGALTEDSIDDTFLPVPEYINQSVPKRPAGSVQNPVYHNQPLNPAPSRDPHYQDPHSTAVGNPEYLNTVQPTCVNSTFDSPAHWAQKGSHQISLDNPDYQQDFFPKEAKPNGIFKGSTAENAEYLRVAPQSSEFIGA
Sequence of BAF3 EGFR DEL T790M PURO POOL (P00533 with tags, fused parts or gaps DEL746-750/T790M): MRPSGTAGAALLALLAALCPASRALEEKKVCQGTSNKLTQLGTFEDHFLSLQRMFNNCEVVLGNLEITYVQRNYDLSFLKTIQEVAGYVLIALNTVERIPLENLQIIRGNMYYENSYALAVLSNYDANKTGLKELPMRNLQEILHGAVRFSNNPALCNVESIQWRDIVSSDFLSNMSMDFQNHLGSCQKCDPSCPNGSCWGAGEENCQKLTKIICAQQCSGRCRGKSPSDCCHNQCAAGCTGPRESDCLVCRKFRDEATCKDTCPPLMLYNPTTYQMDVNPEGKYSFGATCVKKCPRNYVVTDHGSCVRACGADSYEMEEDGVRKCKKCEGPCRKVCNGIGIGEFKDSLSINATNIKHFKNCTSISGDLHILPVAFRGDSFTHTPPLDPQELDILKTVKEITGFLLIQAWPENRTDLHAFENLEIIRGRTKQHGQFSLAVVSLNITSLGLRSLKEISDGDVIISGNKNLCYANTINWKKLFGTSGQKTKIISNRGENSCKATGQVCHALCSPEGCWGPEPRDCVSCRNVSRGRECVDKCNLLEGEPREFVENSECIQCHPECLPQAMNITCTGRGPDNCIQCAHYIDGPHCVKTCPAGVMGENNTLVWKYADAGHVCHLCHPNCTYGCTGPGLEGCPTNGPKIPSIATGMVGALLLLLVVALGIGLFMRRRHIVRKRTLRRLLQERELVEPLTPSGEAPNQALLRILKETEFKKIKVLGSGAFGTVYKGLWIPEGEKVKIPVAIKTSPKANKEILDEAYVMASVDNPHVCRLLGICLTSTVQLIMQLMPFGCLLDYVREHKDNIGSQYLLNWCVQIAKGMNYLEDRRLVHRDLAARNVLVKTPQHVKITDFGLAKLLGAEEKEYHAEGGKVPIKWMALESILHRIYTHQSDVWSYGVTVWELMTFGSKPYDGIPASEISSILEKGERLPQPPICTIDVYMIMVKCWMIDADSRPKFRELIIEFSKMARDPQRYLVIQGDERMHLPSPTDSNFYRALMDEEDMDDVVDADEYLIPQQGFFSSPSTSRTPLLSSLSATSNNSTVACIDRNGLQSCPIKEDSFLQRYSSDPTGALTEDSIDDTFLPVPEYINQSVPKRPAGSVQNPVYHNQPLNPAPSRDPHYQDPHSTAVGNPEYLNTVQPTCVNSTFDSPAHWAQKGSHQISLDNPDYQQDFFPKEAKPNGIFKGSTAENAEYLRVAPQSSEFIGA
Sequence of EGFR bearing the L858R/T790M double mutation (P00533 25-1210 T790M/L858R): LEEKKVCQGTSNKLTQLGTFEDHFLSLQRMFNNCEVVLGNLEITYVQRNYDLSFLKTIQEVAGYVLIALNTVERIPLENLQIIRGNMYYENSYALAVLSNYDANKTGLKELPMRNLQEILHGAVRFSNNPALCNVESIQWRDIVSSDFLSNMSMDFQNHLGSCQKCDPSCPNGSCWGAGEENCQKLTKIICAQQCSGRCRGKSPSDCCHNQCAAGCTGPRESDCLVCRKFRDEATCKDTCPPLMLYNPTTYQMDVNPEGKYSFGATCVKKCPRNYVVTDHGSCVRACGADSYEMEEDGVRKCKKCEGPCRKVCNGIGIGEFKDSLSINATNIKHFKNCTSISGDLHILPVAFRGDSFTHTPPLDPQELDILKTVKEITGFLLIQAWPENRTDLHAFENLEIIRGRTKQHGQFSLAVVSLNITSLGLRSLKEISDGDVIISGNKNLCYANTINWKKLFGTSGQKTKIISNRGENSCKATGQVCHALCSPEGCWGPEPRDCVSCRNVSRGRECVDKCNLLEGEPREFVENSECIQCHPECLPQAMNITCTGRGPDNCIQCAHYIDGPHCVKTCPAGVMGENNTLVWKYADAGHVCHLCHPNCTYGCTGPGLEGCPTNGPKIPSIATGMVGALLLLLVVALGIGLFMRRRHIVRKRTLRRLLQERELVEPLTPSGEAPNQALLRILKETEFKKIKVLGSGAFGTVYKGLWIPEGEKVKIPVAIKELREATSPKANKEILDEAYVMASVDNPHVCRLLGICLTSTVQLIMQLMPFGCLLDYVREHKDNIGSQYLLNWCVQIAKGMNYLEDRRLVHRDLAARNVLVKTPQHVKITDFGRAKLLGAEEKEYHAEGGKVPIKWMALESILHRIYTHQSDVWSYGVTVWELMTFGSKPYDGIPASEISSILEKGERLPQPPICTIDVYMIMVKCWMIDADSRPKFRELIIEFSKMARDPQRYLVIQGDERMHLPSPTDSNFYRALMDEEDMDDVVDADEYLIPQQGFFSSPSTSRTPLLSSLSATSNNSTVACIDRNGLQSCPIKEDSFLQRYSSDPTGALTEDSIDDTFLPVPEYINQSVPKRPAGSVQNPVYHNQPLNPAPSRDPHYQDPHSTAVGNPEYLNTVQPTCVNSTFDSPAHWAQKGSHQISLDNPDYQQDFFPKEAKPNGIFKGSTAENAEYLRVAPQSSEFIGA
Sequence of EGFR bearing the L858R mution (P00533 25-1210 L858R): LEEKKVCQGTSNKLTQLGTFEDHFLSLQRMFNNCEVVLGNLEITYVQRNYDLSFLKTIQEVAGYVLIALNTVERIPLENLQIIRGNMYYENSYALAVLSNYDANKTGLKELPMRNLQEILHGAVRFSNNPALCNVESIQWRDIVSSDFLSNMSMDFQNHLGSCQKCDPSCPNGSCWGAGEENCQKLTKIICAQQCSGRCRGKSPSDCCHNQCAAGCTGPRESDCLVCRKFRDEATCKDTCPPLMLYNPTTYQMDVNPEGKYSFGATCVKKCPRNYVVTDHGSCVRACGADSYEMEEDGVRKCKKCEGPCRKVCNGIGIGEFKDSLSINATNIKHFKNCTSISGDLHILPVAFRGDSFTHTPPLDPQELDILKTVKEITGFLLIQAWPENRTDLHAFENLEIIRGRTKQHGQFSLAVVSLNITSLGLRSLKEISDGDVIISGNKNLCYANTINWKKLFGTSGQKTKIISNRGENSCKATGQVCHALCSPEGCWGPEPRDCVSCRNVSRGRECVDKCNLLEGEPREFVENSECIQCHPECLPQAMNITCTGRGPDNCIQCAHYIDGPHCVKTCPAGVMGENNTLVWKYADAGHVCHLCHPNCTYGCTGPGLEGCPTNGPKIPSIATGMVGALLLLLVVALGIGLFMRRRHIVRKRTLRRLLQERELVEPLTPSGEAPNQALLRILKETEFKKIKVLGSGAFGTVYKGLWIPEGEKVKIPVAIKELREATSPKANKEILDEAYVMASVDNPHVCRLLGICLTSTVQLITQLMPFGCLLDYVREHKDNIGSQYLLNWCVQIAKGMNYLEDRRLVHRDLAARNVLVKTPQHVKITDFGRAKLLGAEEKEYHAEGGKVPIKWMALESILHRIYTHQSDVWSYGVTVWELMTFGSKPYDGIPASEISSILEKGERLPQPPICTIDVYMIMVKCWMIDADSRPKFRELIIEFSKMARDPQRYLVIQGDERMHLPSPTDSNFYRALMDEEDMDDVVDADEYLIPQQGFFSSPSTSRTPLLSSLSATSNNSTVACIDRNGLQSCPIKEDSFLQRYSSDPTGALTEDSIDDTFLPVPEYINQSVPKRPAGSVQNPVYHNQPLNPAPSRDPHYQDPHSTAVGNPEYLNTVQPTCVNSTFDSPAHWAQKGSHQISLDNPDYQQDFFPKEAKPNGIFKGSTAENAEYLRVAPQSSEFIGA

| IC50 [1] [nM] | IC50 [2] [nM] | IC50 [3] [nM] | IC50 [4] [nM] | IC50 [5] [nM] | SMILES | IC50 (BAF3 PARENTAL) [nM] |
| --- | --- | --- | --- | --- | --- | --- |
| < 51 | 51 to 100 | < 51 | < 51 | < 51 | C=CC(=O)Nc1cc(Nc2ncc(Cl)c(Nc3ccc(F)cc3P(C)(C)=O)n2)c(OC)cc1F [Example 55, N-(5-((5-chloro-4-((2-(dimethylphosphoryl)-4-fluorophenyl)amino)pyrimidin-2-yl)amino)-2-fluoro-4-methoxyphenyl)acrylamide] | ≥ 250 |
| < 51 | 101 to 250 | < 51 | < 51 | < 51 | COc1cc(F)c(NC(=O)/C=C/CN(C)C)cc1Nc1ncc(Cl)c(Nc2ccccc2P(C)(C)=O)n1 [Example 56, (E)-N-(5-((5-chloro-4-((2-(dimethylphosphoryl)phenyl)amino)pyrimidin-2-yl)amino)-2-fluoro-4-methoxyphenyl)-4-(dimethylamino)but-2-enamide] | ≥ 250 |
| ≥ 250 | ≥ 250 | ≥ 250 | < 51 | < 51 | COCCOc1cc(OC)c(Nc2ncc(Cl)c(Nc3ccccc3P(C)(C)=O)n2)cc1NC(=O)/C=C/CN(C)C [Example 57, (E)-N-(5-((5-chloro-4-((2-(dimethylphosphoryl)phenyl)amino)pyrimidin-2-yl)amino)-4-methoxy-2-(2-methoxyethoxy)phenyl)-4-(dimethylamino)but-2-enamide] | ≥ 250 |
| < 51 | < 51 | < 51 | < 51 | < 51 | COc1ccc(NC(=O)C2CO2)cc1Nc1ncc(Cl)c(Nc2ccccc2P(C)(C)=O)n1 (stereo not drawn) [Example 58, N-(3-((5-chloro-4-((2-(dimethylphosphoryl)phenyl)amino)pyrimidin-2-yl)amino)-4-methoxyphenyl)oxirane-2-carboxamide] | ≥ 250 |
| 101 to 250 | < 51 | < 51 | < 51 | < 51 | COc1cc(N2CCOCC2)c(NC(=O)C2CO2)cc1Nc1ncc(Cl)c(Nc2ccccc2P(C)(C)=O)n1 (stereo not drawn) [Example 59, N-(5-((5-chloro-4-((2-(dimethylphosphoryl)phenyl)amino)pyrimidin-2-yl)amino)-4-methoxy-2-morpholinophenyl)oxirane-2-carboxamide] | ≥ 250 |
| ≥ 250 | ≥ 250 | ≥ 250 | ≥ 250 | ≥ 250 | C=CP(C)(=O)Cc1ccc(OC)c(Nc2ncc(Cl)c(Nc3ccccc3P(C)(C)=O)n2)c1 (stereo not drawn) [Example 60, (2-((5-chloro-2-((2-methoxy-5-((methyl(vinyl)phosphoryl)methyl)phenyl)amino)pyrimidin-4-yl)amino)phenyl)dimethylphosphine oxide] | ≥ 250 |
| < 51 | < 51 | < 51 | < 51 | < 51 | C=CC(=O)Nc1cc(Nc2ncc(Cl)c(Nc3ccccc3P(C)(C)=O)n2)c(OC)cc1N(CC)CCN(CC)CC [Example 61, N-(5-((5-chloro-4-((2-(dimethylphosphoryl)phenyl)amino)pyrimidin-2-yl)amino)-2-((2-(diethylamino)ethyl)(ethyl)amino)-4-methoxyphenyl)acrylamide] | ≥ 250 |
| < 51 | 51 to 100 | < 51 | < 51 | 51 to 100 | C=CC(=O)Nc1cc(Nc2ncc(CC)c(Nc3ccccc3P(C)(C)=O)n2)c(OC)cc1N(C)CCN(CC)CC [Example 62, N-(2-((2-(diethylamino)ethyl)(methyl)amino)-5-((4-((2-(dimethylphosphoryl)phenyl)amino)-5-ethylpyrimidin-2-yl)amino)-4-methoxyphenyl)acrylamide] | ≥ 250 |
| < 51 | < 51 | < 51 | < 51 | < 51 | C=CC(=O)Nc1ccc(OC)c(Nc2ncc(CC)c(Nc3ccccc3P(C)(C)=O)n2)c1 [Example 63, N-(3-((4-((2-(dimethylphosphoryl)phenyl)amino)-5-ethylpyrimidin-2-yl)amino)-4-methoxyphenyl)acrylamide] | ≥ 250 |
| < 51 | < 51 | < 51 | < 51 | < 51 | C=CC(=O)Nc1ccc(OC)c(Nc2ncc(C)c(Nc3ccccc3P(C)(C)=O)n2)c1 [Example 64, N-(3-((4-((2-(dimethylphosphoryl)phenyl)amino)-5-methylpyrimidin-2-yl)amino)-4-methoxyphenyl)acrylamide] | ≥ 250 |
| < 51 | 51 to 100 | < 51 | < 51 | < 51 | C=CC(=O)Nc1ccc(OC)c(Nc2ncc(C3CC3)c(Nc3ccccc3P(C)(C)=O)n2)c1 [Example 65, N-(3-((5-cyclopropyl-4-((2-(dimethylphosphoryl)phenyl)amino)pyrimidin-2-yl)amino)-4-methoxyphenyl)acrylamide] | ≥ 250 |

Reference: patent US9834518B2, “Compounds for inhibiting cell proliferation in EGFR-driven cancers” (ARIAD Pharmaceuticals, Inc., priority 2011, dated 2017)
